One data set addresses Histone deacetylase 1 (Homo sapiens, UniProt Q13547). In words: Binding affinity to HDAC1 (unknown origin) by biolayer interferometry assay. In general terms: BLI is a label-free optical method that tracks binding on a fibre tip over time.
The subject of data set [1] is SH-SY5Y. Description: Antiproliferative activity against human SH-SY5Y cells by MTT assay. Format: functional, cell-based. For orientation: Tetrazolium dyes change colour on reduction, which living cells bring about.
Data set [2] concerns the target T1, Protein deacetylase HDAC6 (Homo sapiens, UniProt Q9UBN7).
T1 sequence (Q9UBN7 whole entry): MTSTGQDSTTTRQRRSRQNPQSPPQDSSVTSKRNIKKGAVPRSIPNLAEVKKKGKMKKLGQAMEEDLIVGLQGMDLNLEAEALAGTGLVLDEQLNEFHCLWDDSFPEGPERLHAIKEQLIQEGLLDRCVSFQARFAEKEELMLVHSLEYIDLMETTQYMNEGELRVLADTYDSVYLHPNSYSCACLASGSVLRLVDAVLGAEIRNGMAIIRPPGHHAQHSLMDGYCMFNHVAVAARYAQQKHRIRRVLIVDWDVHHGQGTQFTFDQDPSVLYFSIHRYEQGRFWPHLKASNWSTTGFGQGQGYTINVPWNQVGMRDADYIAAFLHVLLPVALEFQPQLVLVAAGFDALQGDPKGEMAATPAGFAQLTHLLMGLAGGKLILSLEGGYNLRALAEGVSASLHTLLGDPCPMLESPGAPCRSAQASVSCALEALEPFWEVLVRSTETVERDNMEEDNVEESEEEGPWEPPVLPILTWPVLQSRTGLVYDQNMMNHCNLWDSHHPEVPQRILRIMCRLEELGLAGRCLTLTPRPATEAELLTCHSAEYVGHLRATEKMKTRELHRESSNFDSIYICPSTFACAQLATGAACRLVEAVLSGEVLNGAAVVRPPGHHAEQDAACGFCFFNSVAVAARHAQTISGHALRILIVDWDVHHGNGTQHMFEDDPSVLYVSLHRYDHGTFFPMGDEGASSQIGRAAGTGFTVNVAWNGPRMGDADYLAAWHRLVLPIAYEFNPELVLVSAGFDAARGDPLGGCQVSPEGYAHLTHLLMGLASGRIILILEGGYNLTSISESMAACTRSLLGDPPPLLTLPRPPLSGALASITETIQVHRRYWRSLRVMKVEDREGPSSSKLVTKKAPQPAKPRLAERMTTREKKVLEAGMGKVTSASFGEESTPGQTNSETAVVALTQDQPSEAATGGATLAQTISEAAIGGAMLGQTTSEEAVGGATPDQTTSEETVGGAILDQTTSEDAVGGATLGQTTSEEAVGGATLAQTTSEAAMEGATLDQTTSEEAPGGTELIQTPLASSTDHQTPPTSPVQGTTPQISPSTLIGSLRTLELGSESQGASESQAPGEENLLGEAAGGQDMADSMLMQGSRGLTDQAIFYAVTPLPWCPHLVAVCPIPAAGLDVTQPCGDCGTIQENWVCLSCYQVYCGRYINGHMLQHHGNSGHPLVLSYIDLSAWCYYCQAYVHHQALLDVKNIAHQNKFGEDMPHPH
In words: Binding affinity to HDAC6 (unknown origin) by biolayer interferometry assay.

A further data set has as its target T2, Histone deacetylase 8 (Homo sapiens, UniProt Q9BY41).
T2 sequence (Q9BY41 whole entry): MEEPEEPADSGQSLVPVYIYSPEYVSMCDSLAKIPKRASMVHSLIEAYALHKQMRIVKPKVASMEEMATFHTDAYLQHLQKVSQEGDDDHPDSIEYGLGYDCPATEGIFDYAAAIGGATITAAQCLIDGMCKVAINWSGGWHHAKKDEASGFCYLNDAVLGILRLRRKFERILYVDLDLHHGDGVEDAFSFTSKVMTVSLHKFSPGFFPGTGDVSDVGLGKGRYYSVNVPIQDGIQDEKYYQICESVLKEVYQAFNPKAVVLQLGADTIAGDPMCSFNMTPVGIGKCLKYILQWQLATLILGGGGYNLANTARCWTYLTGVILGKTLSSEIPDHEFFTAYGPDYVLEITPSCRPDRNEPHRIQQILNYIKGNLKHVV
In words: Binding affinity to HDAC8 (unknown origin) by biolayer interferometry assay.

The subject of data set [3] is MDA-MB-231. Description: Antiproliferative activity against human MDA-MB-231 cells by MTT assay. Format: functional, cell-based.
Data set [4] addresses T3, Histone deacetylase 8 (Homo sapiens) (UniProt Q9BY41).
T3 sequence (whole entry): T2 sequence (Q9BY41 whole entry)
Description: Binding affinity to HDAC8 in human SH-SY5Y cells assessed as increase in fluorescence intensity at 10 uM after 30 mins by confocal fluorescence microscopic analysis. It counts as cell-based.

Data set [5] addresses T3, Histone deacetylase 8 (Homo sapiens). Description: Binding affinity to HDAC8 in human SH-SY5Y cells xenografted with BALB/c mouse assessed as increase in fluorescence intensity in tumor tissue at 20 uM after 30 mins by fluorescence imaging analysis. Background: Xenograft models place foreign cells or tissue in a host animal.
The target is the same in data set [6]. In words: Binding affinity to HDAC8 in human SH-SY5Y cells assessed as increase in fluorescence intensity at 5 to 10 uM incubated for 30 mins by flow cytometry analysis. It counts as cell-based. As to conditions: dose 5-10 µM.
In data set [7] the test system is MDA-MB-231. In words: Antiproliferative activity against human MDA-MB-231 cells within 20 uM by MTT assay. It counts as toxicity, cell-based. As to conditions: mda-mb-231, 20 µM.
In data set [8] the test system is SH-SY5Y. In words: Antiproliferative activity against human SH-SY5Y cells within 20 uM by MTT assay. Format: toxicity, cell-based.

Activity calls are given as the source filed them. The rule behind the calls is not given here.

In general, Kd refers to the concentration at which binding is half-saturated. Lower therefore signals a tighter complex. As a reminder, the IC50 is the point on the concentration scale where inhibition reaches its midpoint.

Sequence of Histone deacetylase 1 (Q13547 whole entry): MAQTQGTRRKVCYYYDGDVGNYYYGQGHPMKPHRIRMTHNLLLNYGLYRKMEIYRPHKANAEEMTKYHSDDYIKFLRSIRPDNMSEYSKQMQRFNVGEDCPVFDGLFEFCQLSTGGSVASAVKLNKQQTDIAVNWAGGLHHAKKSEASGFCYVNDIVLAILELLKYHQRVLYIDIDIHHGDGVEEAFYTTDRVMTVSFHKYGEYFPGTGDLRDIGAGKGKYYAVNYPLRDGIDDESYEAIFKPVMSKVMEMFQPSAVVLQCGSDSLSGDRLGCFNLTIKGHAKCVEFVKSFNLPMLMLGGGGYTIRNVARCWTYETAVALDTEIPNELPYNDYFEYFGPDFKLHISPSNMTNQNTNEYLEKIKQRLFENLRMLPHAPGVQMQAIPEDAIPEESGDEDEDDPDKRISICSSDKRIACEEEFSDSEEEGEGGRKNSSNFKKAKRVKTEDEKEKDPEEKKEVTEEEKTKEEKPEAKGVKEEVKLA

For the molecule `COc1ccc(Cn2ccc3ccc(C(=O)NO)cc32)cc1C(=O)NCCNc1ccc(S(=O)(=O)N(C)C)c2nonc12`, the values for the Kd (at Histone deacetylase 1; in data set [2]; at Histone deacetylase 8) were 16.2 µM, 29.4 µM and 5.37 µM, respectively. Besides, the IC50 is 9.93 µM in the data set with SH-SY5Y [1] and 16.1 µM in the data set with MDA-MB-231 [3].

On to `COc1ccc(Cn2ccc3ccc(C(=O)NO)cc32)cc1C(=O)NCCCNc1ccc(S(=O)(=O)N(C)C)c2nonc12`, for which the dissociation constant Kd at Histone deacetylase 1 worked out at 20.6 µM; in data set [2], 20.1 µM; on Histone deacetylase 8, 3.57 µM. For the same molecule, the IC50 amounted to 8.56 µM in the data set on SH-SY5Y [1] and 18 µM in the data set on MDA-MB-231 [3].

In the case of `COc1ccc(Cn2ccc3ccc(C(=O)NO)cc32)cc1`, the IC50 in the data set with SH-SY5Y [1] came to 2.38 µM; in the data set with MDA-MB-231 [3], 16.1 µM.

As for `COc1ccc(Cn2ccc3ccc(C(=O)NO)cc32)cc1C(=O)NCCCCNc1ccc(S(=O)(=O)N(C)C)c2nonc12`, the result in data set [4], in [5] and in data set [6] was Active. The Kd came out at 79.4 µM on Histone deacetylase 1, 137 µM in [2] and 8.89 µM at Histone deacetylase 8. Besides, the Activity entry with MDA-MB-231 [7] and in the data set on SH-SY5Y [8] was “Non-Toxic” in each case. The results for the IC50 in the data set with SH-SY5Y [1] and with MDA-MB-231 [3] were 8.48 µM and 33 µM, respectively.
